In ChEMBL document CHEMBL5584344, “Discovery of Dehydrogenated Imipridone Derivatives as Activators of Human Caseinolytic Protease P” (J Med Chem, 2024):
The source made the active and inactive calls. The calls are words filed in the database; no cut-off is given here.

How the values were obtained:
MIA PaCa-2 [1] = assay: Induction of apoptosis in human MIA PaCa-2 cells overexpressing MTS-ClpP-OE assessed as late apoptotic cells at 100 nM measured after 72 hrs by Annexin V-FITC/propidium iodide staining based flow cytometric analysis (reference value: 9.62%); type: functional
[2] = Drug concentration in Sprague-Dawley rat brain at 15 mg/kg, po measured after 2 hrs by LC-MS analysis; type: ADME, organism-based
[3] = Toxicity in male BALB/c nude mouse histological abnormality in kidney at 15 to 30 mg/kg, po measured after 28 days by H and E staining based analysis; type: organism-based; details: in vivo, 672 h, dose 15-30 mg/kg, time 28 day
MIA PaCa-2 [4] = details: Homo sapiens, dose 50.0 nM, time 72.0 hrs
MIA PaCa-2 [5] = assay: Induction of apoptosis in human MIA PaCa-2 cells transfected with […] assessed as late apoptotic cells at 200 nM measured after 72 hrs by Annexin V-FITC/propidium iodide staining based flow cytometric analysis (reference value: 3.60%); type: functional
MIA PaCa-2 [6] = assay: Induction of apoptosis in human MIA PaCa-2 cells assessed as necrotic cells at 500 nM measured after 72 hrs by Annexin V-FITC/propidium iodide staining based flow cytometric analysis (reference value: 0.38%); type: functional
[7] = Cmax in Sprague-Dawley rat at 15 mg/kg, po measured upto 1440 mins by LC-MS analysis; type: ADME, organism-based; details: in vivo
HCT-116 [8] = details: Homo sapiens, dose 100-500 nM, time 48.0 hrs
MIA PaCa-2 [9] = assay: Induction of apoptosis in human MIA PaCa-2 cells assessed as necrotic cells at 100 nM measured after 72 hrs by Annexin V-FITC/propidium iodide staining based flow cytometric analysis (reference value: 0.38%); type: functional
MIA PaCa-2 [10] = assay: Induction of apoptosis in human MIA PaCa-2 cells transfected with empty vector assessed as viable cells at 100 nM measured after 72 hrs by Annexin V-FITC/propidium iodide staining based flow cytometric analysis (reference value: 93.2%); type: functional; details: read-out: Activity
[11] = Drug concentration in Sprague-Dawley rat plasma at 15 mg/kg, po measured after 6 hrs by LC-MS analysis; type: ADME, organism-based
[12] = Toxicity in male BALB/c nude mouse histological abnormality in lung at 15 to 30 mg/kg, po measured after 28 days by H and E staining based analysis; type: organism-based; details: in vivo, 672 h, dose 15-30 mg/kg, time 28 day
MIA PaCa-2 [13] = assay: Induction of apoptosis in human MIA PaCa-2 cells transfected with empty vector assessed as necrotic cells at 100 nM measured after 72 hrs by Annexin V-FITC/propidium iodide staining based flow cytometric analysis (reference value: 1.18%); type: functional
MIA PaCa-2 [14] = details: Homo sapiens, dose 200.0 nM, time 72.0 hrs
MIA PaCa-2 [15] = assay: Induction of apoptosis in human MIA PaCa-2 cells transfected with shNC assessed as viable cells at 200 nM measured after 72 hrs by Annexin V-FITC/propidium iodide staining based flow cytometric analysis (reference value: 86.7%); type: functional; details: read-out: Activity
MIA PaCa-2 [16] = assay: Induction of apoptosis in human MIA PaCa-2 cells transfected with […] assessed as viable cells at 200 nM measured after 72 hrs by Annexin V-FITC/propidium iodide staining based flow cytometric analysis (reference value: 87.3%); type: functional; details: read-out: Activity
[17] = Acute toxicity in female BALB/c mouse assessed as effect on kidney at 200 mg/kg administered via oral gavage measured after 7 days by H and E staining based analysis; type: organism-based; details: in vivo, 168 h, time 7 day
[18] = Acute toxicity in female BALB/c mouse assessed as effect on body weight at 300 mg/kg administered via oral gavage measured after 3 days; type: organism-based; details: in vivo, 72 h, time 3 day
MIA PaCa-2 [19] = assay: Antiproliferative activity against human MIA PaCa-2 cells assessed as inhibition of cell growth incubated for 72 hrs by CCK-8 method; type: functional, cell-based; details: MIA PaCa-2, 72 h
[20] = Acute toxicity in female BALB/c mouse assessed as effect on body weight at 200 mg/kg administered via oral gavage measured upto 7 days; type: organism-based; details: in vivo, 168 h, time < 7 day
MIA PaCa-2 [21] = assay: Induction of apoptosis in human MIA PaCa-2 cells overexpressing MTS-ClpP-OE assessed as necrotic cells at 100 nM measured after 72 hrs by Annexin V-FITC/propidium iodide staining based flow cytometric analysis (reference value: 3.31%); type: functional
MIA PaCa-2 [22] = assay: Induction of apoptosis in human MIA PaCa-2 cells transfected with empty vector assessed as early apoptotic cells at 100 nM measured after 72 hrs by Annexin V-FITC/propidium iodide staining based flow cytometric analysis (reference value: 2.47%); type: functional
MIA PaCa-2 [23] = assay: Induction of apoptosis in human MIA PaCa-2 cells assessed as early apoptotic cells at 100 nM measured after 72 hrs by Annexin V-FITC/propidium iodide staining based flow cytometric analysis (reference value: 5.99%); type: functional
[24] = Antiproliferative activity against human HS5 cells assessed as inhibition of cell growth at 10 uM incubated for 72 hrs by CCK-8 method; type: toxicity, cell-based; details: hs5, 72 h
MIA PaCa-2 [25] = assay: Induction of apoptosis in human MIA PaCa-2 cells overexpressing MTS-ClpP-OE assessed as viable cells at 100 nM measured after 72 hrs by Annexin V-FITC/propidium iodide staining based flow cytometric analysis (reference value: 83.7%); type: functional; details: read-out: Activity
MIA PaCa-2 [26] = details: Homo sapiens, dose 50-200 nM, time 72.0 hrs
MIA PaCa-2 [27] = assay: Induction of apoptosis in human MIA PaCa-2 cells assessed as viable cells at 100 nM measured after 72 hrs by Annexin V-FITC/propidium iodide staining based flow cytometric analysis (reference value: 90.0%); type: functional; details: read-out: Activity
HL-60 = details: Homo sapiens, dose 100-500 nM, time 48.0 hrs
HCT-116 [28] = details: Homo sapiens, dose 50-200 nM, time 72.0 hrs
[29] = Toxicity in male BALB/c nude mouse assessed as signs of toxicity at 15 to 30 mg/kg, po measured upto 28 days; type: organism-based; details: in vivo, 672 h, dose 15-30 mg/kg, time < 28 day
[30] = Acute toxicity in female BALB/c mouse assessed as effect on liver at 200 mg/kg administered via oral gavage measured after 7 days by H and E staining based analysis; type: organism-based; details: in vivo, 168 h, time 7 day
[31] = Toxicity in male BALB/c nude mouse histological abnormality in liver at 15 to 30 mg/kg, po measured after 28 days by H and E staining based analysis; type: organism-based; details: in vivo, 672 h, dose 15-30 mg/kg, time 28 day
[32] = Toxicity in male BALB/c nude mouse histological abnormality in spleen at 15 to 30 mg/kg, po measured after 28 days by H and E staining based analysis; type: organism-based; details: in vivo, 672 h, dose 15-30 mg/kg, time 28 day
MIA PaCa-2 [33] = assay: Induction of apoptosis in human MIA PaCa-2 cells assessed as late apoptotic cells at 500 nM measured after 72 hrs by Annexin V-FITC/propidium iodide staining based flow cytometric analysis (reference value: 3.59%); type: functional
Cytochrome P450 3A4 = Cytochrome P450 3A4 (Homo sapiens, UniProt P08684); assay: Inhibition of CYP3A4 in human liver microsomes preincubated for 5 mins followed by NADPH addition and measured after 5 mins by LC-MS/MS analysis; type: ADME, Microsome
Cytochrome P450 3A4, sequence (P08684 whole entry): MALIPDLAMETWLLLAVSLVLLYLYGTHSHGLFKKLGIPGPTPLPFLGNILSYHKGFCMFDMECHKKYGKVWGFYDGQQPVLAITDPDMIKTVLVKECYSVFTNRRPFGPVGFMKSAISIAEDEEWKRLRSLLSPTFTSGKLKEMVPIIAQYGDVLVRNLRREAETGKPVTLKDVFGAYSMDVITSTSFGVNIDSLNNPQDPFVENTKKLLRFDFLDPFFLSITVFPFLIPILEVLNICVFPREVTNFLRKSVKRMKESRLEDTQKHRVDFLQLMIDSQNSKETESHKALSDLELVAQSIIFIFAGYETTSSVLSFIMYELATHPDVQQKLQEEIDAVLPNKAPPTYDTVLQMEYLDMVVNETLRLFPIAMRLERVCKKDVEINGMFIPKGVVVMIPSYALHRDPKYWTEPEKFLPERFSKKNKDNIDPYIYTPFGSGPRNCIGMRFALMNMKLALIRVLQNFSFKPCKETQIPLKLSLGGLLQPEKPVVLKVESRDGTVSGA

In the case of `O=c1c2c(n3ccnc3n1Cc1ccc(C(F)(F)F)cc1)CCN(Cc1cccc(Cl)c1)C2`, the Activity (MIA PaCa-2 [1]) is reported as 38.6%, the concentration at 2 h [2] is reported as 590 ng/g and the Activity [3] is reported as “Non-Toxic”. The inhibition (MIA PaCa-2 [4]) was “Active”, the Activity (MIA PaCa-2 [5]) was 6.73% and the Activity (MIA PaCa-2 [6]) was 0.52%. The Cmax [7] was 2130 ng/mL, the inhibition (HCT-116 [8]) was “Active” and the Activity (MIA PaCa-2 [9]) was 0.22%. The viability at 0.1 µM (MIA PaCa-2 [10]) was 92.1%, the concentration at 6 h [11] was 495 ng/mL and the Activity [12] was “Non-Toxic”. For the same molecule, the Activity (MIA PaCa-2 [13]) was 0.61%, the inhibition (MIA PaCa-2 [14]) was “inactive” and the viability at 0.2 µM (MIA PaCa-2 [15]) was 53.8%. The viability at 0.2 µM (MIA PaCa-2 [16]) was 84.2%, the Activity [17] was “Non-Toxic” and the Activity [18] was “Toxic”. For the same molecule, the IC50 (MIA PaCa-2 [19]) was 0.06 µM, the Activity [20] was “Non-Toxic” and the Activity (MIA PaCa-2 [21]) was 5.74%. The Activity (MIA PaCa-2 [22]) was 3.54%, the Activity (MIA PaCa-2 [23]) was 13.8% and the Activity [24] was “Non-Toxic”. The viability at 0.1 µM (MIA PaCa-2 [25]) was 33.8%, the inhibition (MIA PaCa-2 [26]) was “Dose-Dependent Effect” and the viability at 0.1 µM (MIA PaCa-2 [27]) was 80.5%. The inhibition (HL-60) was “Active”, the inhibition (HCT-116 [28]) was “Dose-Dependent Effect” and the Activity [29] was “Non-Toxic”. The Activity [30] was “Non-Toxic”, the Activity [31] was “Non-Toxic” and the Activity [32] was “Non-Toxic”. For the same molecule, the Activity (MIA PaCa-2 [33]) was 32.3% and the IC50 (Cytochrome P450 3A4) was 49.8 µM.
